This note sets out measurements from US20240317708A1, “INHIBITORS OF TRANSGLUTAMINASES” (ZEDIRA GMBH, priority 2021, published 2024).

For orientation: logD means lipophilicity at a set pH, counting ionised and neutral species. Broadly, the Papp is the rate of passage across a membrane or cell layer, normalised by area and donor concentration. As a reminder, the IC50 is the concentration needed to halve the response being measured.

The structures appear in SMILES notation.

A short description of series [1]: Log D shake flask method (octanol / PBS pH 7.4, HPLC). Type of series: physicochemical. Particulars: octanol/phosphate-buffered saline (PBS); octanol / PBS pH 7.4, shake flask. The protocol:
In order to classify the inventive compounds according to their lipophilicity, Log D values (distribution coefficient) were determined by means of the well-established shake flask method, measuring the partition of a compound between an octanol and phosphate-buffered saline (PBS, pH 7.4) by HPLC.

The nature of series [2]: Caco-2 permeability assay (CacoReady kit). The format is in vitro ADME. The conditions noted are these: human. The protocol: Permeability coefficients (Papp values) were obtained from Caco-2 barrier studies predicting oral/intestinal bioavailability of the tested compounds. The assays were performed by using CacoReady™ ready-to-use kits from ReadyCell according to the manufacturers protocol.

Series [3] has as its target T1, recombinant human transglutaminase 2 (Homo sapiens, UniProt P21980).
T1 construct: purchased Zedira T022
T1 sequence (P21980 1-687): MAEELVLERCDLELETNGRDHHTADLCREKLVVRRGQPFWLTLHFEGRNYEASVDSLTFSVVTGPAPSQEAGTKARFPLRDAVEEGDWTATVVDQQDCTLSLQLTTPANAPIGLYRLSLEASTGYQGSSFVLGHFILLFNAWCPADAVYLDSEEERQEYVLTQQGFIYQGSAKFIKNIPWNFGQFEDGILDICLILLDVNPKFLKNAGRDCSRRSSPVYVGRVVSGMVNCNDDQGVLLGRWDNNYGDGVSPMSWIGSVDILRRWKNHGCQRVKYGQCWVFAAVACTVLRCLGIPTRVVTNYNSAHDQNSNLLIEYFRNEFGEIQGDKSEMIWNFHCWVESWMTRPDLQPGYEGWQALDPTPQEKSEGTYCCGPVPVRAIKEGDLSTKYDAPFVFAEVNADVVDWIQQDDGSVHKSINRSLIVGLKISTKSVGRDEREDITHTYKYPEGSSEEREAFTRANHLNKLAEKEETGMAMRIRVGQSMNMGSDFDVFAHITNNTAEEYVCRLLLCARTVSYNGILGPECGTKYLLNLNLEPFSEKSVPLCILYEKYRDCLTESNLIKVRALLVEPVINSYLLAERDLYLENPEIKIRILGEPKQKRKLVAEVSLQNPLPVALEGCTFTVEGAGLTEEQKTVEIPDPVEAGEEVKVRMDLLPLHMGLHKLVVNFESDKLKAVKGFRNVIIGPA
Nature of the series: Transglutaminase assay (dansylcadaverine incorporation into dimethylcasein, DCC-assay). The format is biochemical. Particulars: for IC50: recombinant human TG2 10 nM, dansylcadaverine/dimethylcasein, 37° C. The protocol: For the determination of potency of inhibitors against tissue transglutaminase, the incorporation of dansylcadaverine into dimethylcasein (Zedira product T036, Lorand et al., Anal Biochem, 1971, 44:221-31) was measured using recombinant human transglutaminase 2 (Zedira Product T022).
The tissue transglutaminase is diluted in buffer (50 mM Tris-HCl, 7.5 mM CaCl2, 150 mM NaCl, pH=7.4). The final concentration of TG2 in the assay is 10 nM.
A 10 mM inhibitor stock solution is prepared in DMSO, and from this a serial 1:2-fold dilution series is prepared also in DMSO. Each of the initial dilutions is subsequently diluted 1:50-fold with buffer (50 mM Tris-HCl, 7.5 mM CaCl2, 150 mM NaCl, pH=7.4) to yield the final working dilutions containing 2% (v/v) DMSO.
15 μl of inhibitor working dilution are added per well of a 96 well microtiter plate. As control, 15 μl of a 2% (v/v) DMSO solution prepared using the buffer mentioned above are added per well.
Immediately before starting the assay, 600 μl transglutaminase working solution are added to 11.4 ml assay buffer (50 mM Tris-HCl, 10 mM CaCl2, 10 mM glutathione, 2.5% glycerol, 16.7 μM dansylcadaverine, 4 μM N,N-dimethylcasein, 200 mM NaCl, pH=8.0). 285 μl of this reaction mix are added per well containing the inhibitor.
Increase in fluorescence is measured using λex=330 nm and λem=500 nm at 37° C. for 30 min. A slope of the increase in fluorescence between 20 and 30 min is calculated for determination of the IC50 value (inhibitor concentration at which 50% of the initial activity is blocked).
Analysis of enzymatic activity is performed by calculation of the slope of an increase in fluorescence intensity. IC50 values are calculated by plotting the enzymatic activity (as percentage from control containing 2% DMSO instead of inhibitor) against the inhibitor concentration. IC50 is defined as the inhibitor concentration blocking 50% of initial enzyme activity.

For the molecule `COC(=O)/C=C/CC[C@H](NC(=O)c1cn(C)nn1)C(=O)Nc1cccn(CC(=O)NC2C3CC4CC(C3)CC2C4)c1=O` (stereo partly drawn) [III-103, (S,E)-methyl 7-(1-(2-(2-adamantylamino)-2-oxoethyl)-2-oxo-1,2-dihydropyridin-3-ylamino)-6-(1-methyl-1H-1,2,3-triazole-4-carboxamido)-7-oxohept-2-enoate], the logD in series [1] was 1 to 3. In series [2], this molecule yielded a Papp of 1 to 10 ×10⁻⁶ cm/s. Further, in series [3], the IC50 fell in the range of 25 to 250 nM.
The matching figures for `COC(=O)/C=C/CC[C@H](NC(=O)c1oc2ccccc2c1C)C(=O)Nc1cccn(CC(=O)NC23CC4CC(CC(C4)C2)C3)c1=O` [III-45, (S,E)-methyl 7-(1-(2-(1-adamantylamino)-2-oxoethyl)-2-oxo-1,2-dihydropyridin-3-ylamino)-6-(3-methylbenzofuran-2-carboxamido)-7-oxohept-2-enoate]: 3 to 5, 1 to 10 ×10⁻⁶ cm/s and 25 to 250 nM.
The matching figures for `COC(=O)/C=C/CC[C@H](NC(=O)c1ccc2ccoc2c1)C(=O)Nc1cccn(CC(=O)NC2C3CC4CC2CC(C(N)=O)(C4)C3)c1=O` (stereo partly drawn) [III-166, (S,E)-methyl 6-(benzofuran-6-carboxamido)-7-(1-(2-(4-aminoadamantane-1-carboxamide)-2-oxoethyl)-2-oxo-1,2-dihydropyridin-3-ylamino)-7-oxohept-2-enoate]: 1 to 3, less than 1 ×10⁻⁶ cm/s and 25 to 250 nM.
The matching figures for `COC(=O)/C=C/CC[C@H](NC(=O)c1cc2ccccc2s1)C(=O)Nc1cccn(CC(=O)NC2C3CC4CC(C3)CC2C4)c1=O` (stereo partly drawn) [III-5, (S,E)-methyl 6-(benzo[b]thiophene-2-carboxamido)-7-(1-(2-(2-adamantylamino)-2-oxoethyl)-2-oxo-1,2-dihydropyridin-3-ylamino)-7-oxohept-2-enoate]: 3 to 5, 1 to 10 ×10⁻⁶ cm/s and less than 25 nM.
For `COC(=O)/C=C/CC[C@H](NC(=O)C1CCc2ccccc2C1)C(=O)Nc1cccn(CC(=O)NC2C3CC4CC2CC(C(=O)N(C)C)(C4)C3)c1=O` (stereo partly drawn) [III-137, (6S,E)-methyl 7-(1-(2-(4-aminoadamantane-N,N-dimethyl-1-carboxamide)-2-oxoethyl)-2-oxo-1,2-dihydropyridin-3-ylamino)-7-oxo-6-(1,2,3,4-tetrahydronaphthalene-2-carboxamido)hept-2-enoate], the logD in series [1] is 1 to 3. Also, the Papp in series [2] was less than 1 ×10⁻⁶ cm/s. Also, the IC50 in series [3] was 250 to 1500 nM.
In turn, `COC(=O)/C=C/CC[C@H](NC(=O)c1c[nH]cn1)C(=O)Nc1cccn(CC(=O)NC2C3CC4CC(C3)CC2C4)c1=O` (stereo partly drawn) [III-28, (S,E)-methyl 6-(1H-imidazole-4-carboxamido)-7-(1-(2-(2-adamantylamino)-2-oxoethyl)-2-oxo-1,2-dihydropyridin-3-ylamino)-7-oxohept-2-enoate] registered a logD in series [1] of 3 to 5. Also, the Papp in series [2] was less than 1 ×10⁻⁶ cm/s. Moreover, the IC50 in series [3] was in the range of 250 to 1500 nM.
For `COC(=O)/C=C/CC[C@H](NC(=O)c1sc(C(F)(F)F)nc1C)C(=O)Nc1cccn(CC(=O)NC23CC4(C)CC(C)(CC(C)(C4)C2)C3)c1=O` [III-95, (S,E)-methyl 7-(1-(2-(3,5,7-trimethyl-1-adamantylamino)-2-oxoethyl)-2-oxo-1,2-dihydropyridin-3-ylamino)-6-(4-methyl-2-(trifluoromethyl)thiazole-5-carboxamido)-7-oxohept-2-enoate] the same measures were 3 to 5, 1 to 10 ×10⁻⁶ cm/s and less than 25 nM.
For `Cc1cn2c(C(=O)N[C@@H](CC/C=C/C(=O)NC(C)C)C(=O)Nc3cccn(CC(=O)NC45CC(C4)C5)c3=O)csc2n1` [III-141, (S,E)-N7-(1-(2-(bicyclo[1.1.1]pentan-1-ylamino)-2-oxoethyl)-2-oxo-1,2-dihydropyridin-3-yl)-N1-isopropyl-6-(6-methylimidazo[2,1-b]thiazole-3-carboxamido)hept-2-enediamide] the same measures were less than 1, 1 to 10 ×10⁻⁶ cm/s and 250 to 1500 nM.
The matching figures for `COC(=O)/C=C/CC[C@H](NC(=O)c1cnnn1C)C(=O)Nc1cccn(CC(=O)NC23CC4(C)CC(C)(CC(C)(C4)C2)C3)c1=O` [III-93, (S,E)-methyl 7-(1-(2-(3,5,7-trimethyl-1-adamantylamino)-2-oxoethyl)-2-oxo-1,2-dihydropyridin-3-ylamino)-6-(1-methyl-1H-1,2,3-triazole-5-carboxamido)-7-oxohept-2-enoate]: 1 to 3, 1 to 10 ×10⁻⁶ cm/s and less than 25 nM.
`COC(=O)/C=C/CC[C@H](NC(=O)c1oc2ccccc2c1C)C(=O)Nc1cccn(CC(=O)NC23CC4CC(CC(Br)(C4)C2)C3)c1=O` [III-53, (S,E)-methyl 7-(1-(2-(3-bromoadamantan-1-amino)-2-oxoethyl)-2-oxo-1,2-dihydropyridin-3-ylamino)-6-(3-methylbenzofuran-2-carboxamido)-7-oxohept-2-enoate] came in with a logD in series [1] of 3 to 5. This molecule yielded a Papp in series [2] of 1 to 10 ×10⁻⁶ cm/s. Also, in series [3], the IC50 was less than 25 nM.
For `COC(=O)/C=C/CC[C@H](NC(=O)c1cnccn1)C(=O)Nc1cccn(CC(=O)NC2C3CC4CC(C3)CC2C4)c1=O` (stereo partly drawn) [III-24, (S,E)-methyl 7-(1-(2-(2-adamantylamino)-2-oxoethyl)-2-oxo-1,2-dihydropyridin-3-ylamino)-7-oxo-6-(pyrazine-2-carboxamido)hept-2-enoate], in series [1], the logD was in the range of 1 to 3. Further, the Papp in series [2] is less than 1 ×10⁻⁶ cm/s. For the same molecule, the IC50 in series [3] fell in the range of 25 to 250 nM.
In turn, `COC(=O)/C=C/CC[C@H](NC(=O)c1sc(C(F)(F)F)nc1C)C(=O)Nc1cccn(CC(=O)NC2C3CC4CC(C3)CC2C4)c1=O` (stereo partly drawn) [III-14, (S,E)-methyl 7-(1-(2-(2-adamantylamino)-2-oxoethyl)-2-oxo-1,2-dihydropyridin-3-ylamino)-6-(4-methyl-2-(trifluoromethyl)thiazole-5-carboxamido)-7-oxohept-2-enoate] returned a pH-dependent lipophilicity (logD) in series [1] of 3 to 5. For the same molecule, the Papp in series [2] is 1 to 10 ×10⁻⁶ cm/s. In series [3], the IC50 is less than 25 nM.
The matching figures for `COC(=O)/C=C/CC[C@H](NC(=O)c1cn[nH]n1)C(=O)Nc1cccn(CC(=O)NC2C3CC4CC(C3)CC2C4)c1=O` (stereo partly drawn) [III-101, (S,E)-methyl 7-(1-(2-(2-adamantylamino)-2-oxoethyl)-2-oxo-1,2-dihydropyridin-3-ylamino)-7-oxo-6-(2H-1,2,3-triazole-4-carboxamido)hept-2-enoate]: 1 to 3, less than 1 ×10⁻⁶ cm/s and 25 to 250 nM.
`COC(=O)/C=C/CC[C@H](NC(=O)c1cn[nH]n1)C(=O)Nc1cccn(CC(=O)NC2C3CC4CC(C3)CC2C4)c1=O` (stereo partly drawn) [III-102, (S,E)-methyl 7-(1-(2-(2-adamantylamino)-2-oxoethyl)-2-oxo-1,2-dihydropyridin-3-ylamino)-7-oxo-6-(1H-1,2,3-triazole-4-carboxamido)hept-2-enoate]: the IC50 in series [3] fell in the range of 25 to 250 nM.
Take `CCC(CC)CNC(=O)Cn1cccc(NC(=O)[C@H](CC/C=C/C(=O)OC)NC(=O)c2cncn2C)c1=O` [Ref. 2, reference compound]: the “fold more potent compared to Ref. 3” value in series [3] (DCC-assay IC50 ratio vs Ref. 3 (A8)) is on record as 80 fold. In series [3], the IC50 was in the range of 25 to 250 nM.
